Laboratory results from patent US20070218475A1, “Efficient drug screening for protein targets” (priority 2005, published 2007).
Like-named read-outs stand apart in the source and are kept apart here. One block for each molecule: values may come before it.

Experiments:
Shh signaling [1] = assay: Shh-LIGHT2 assay for Hh pathway activation (Gli-dependent luciferase reporter); format: cell-based, mouse
[2] = Keeler and Binns 1965; Berman et al. 2002; cited from earlier work
Smo [3] = biological target: T1, Smo (Mus musculus, UniProt P56726); assay: Photoaffinity labeling of Smo with 125I-labeled PA-cyclopamine; format: binding
T1 construct: expressed in transfected cells; host or cells: Cos-1

SmoA1 = biological target: T2, SmoA1 (Mus musculus, UniProt P56726, W539L); assay: Photoaffinity labeling of SmoA1 with 125I-labeled PA-cyclopamine; format: binding; conditions: Cos-1 cells, SmoA1-Myc3
T2 construct: expressed in transfected cells; host or cells: Cos-1
Protocol: Photoaffinity labeling of Smo proteins: Cos-1 cells were cultured in 6-well plates and transfected with Smo-Myc3 or SmoA1-Myc3 expression vectors (1 μg/well). Two days after transfection, each well was incubated with 1 μCi of ^125I-labeled PA-cyclopamine (˜0.5 nM final concentration) in phenol red-free DMEM containing 0.5% bovine calf serum and various concentrations of the indicated compounds for 10 minutes at 37° C. Solvent vehicle alone (MeOH or DMSO) was used as a control in these experiments. PA-cyclopamine was then activated by 254 nm light (80,000 μJ/cm^2; Stratalinker UV-cross-linker) at room temperature. The cells were immediately chilled on ice, removed from the plates by scraping, and then directly lysed and sonicated in SDS-PAGE loading buffer. Total cell lysates were separated by SDS-PAGE and transferred to nitrocellulose for analysis by autoradiography and western blotting with an anti-Myc monoclonal antibody (9E10; Santa Cruz Biotechnology).

SmoA1-GFP = biological target: T3, SmoA1-GFP (Mus musculus, UniProt P56726, W539L); assay: Localization study of SmoA1-GFP in C3H/10T1/2 cells; format: cell-based
T3 construct: expressed in transfected cells; host or cells: C3H/10T1/2
Protocol: Localization studies of Smo and SmoA1 proteins: C3H/10T1/2 cells (ATCC) were cultured in DMEM containing 10% fetal bovine serum, 0.5 μg/ml ZnSO4 and β-mercaptoethanol (3.5 μL/500 ml DMEM) on glass coverslips (Bioptechs) in […]. […] To assess SmoA1 subcellular localization, either an ER marker (pECFP-ER; Clontech) or a Golgi marker (pECFP-Golgi; Clontech) was cotransfected with the SmoA1-YFP construct. […] Fluorescent protein illumination, detection and imaging was performed on a Zeiss inverted microscope outfitted with a Xenon light source (Lambda DG4; Sutter instruments), single or dual-pass filters (Chroma Technologies), and a cooled CCD camera (Roper Scientific). Images were acquired and processed with Metamorph software (Universal Images).

Smo [4] = biological target: T1, Smo; assay: Fluorescence (BODIPY-cyclopamine) binding assay, Smo-expressing Cos-1 cells
Protocol: (§1) For flow cytometry experiments, the cells were then trypsinized, collected by centrifugation, resuspended in phenol red-free DMEM containing 0.5% bovine calf serum, and analyzed for green fluorescence (FACScan, Beckton Dickinson). […] Curve fitting analysis was performed with Kaleidograph (Synergy Software).

SmoΔCRD = biological target: T4, SmoΔCRD (Mus musculus, UniProt P56726, DEL68-182); assay: Fluorescence (BODIPY-cyclopamine) binding assay, Cos-1 cells expressing SmoΔCRD; conditions: 150 nM KAAD-cyclopamine
T4 construct: expressed in transfected cells; host or cells: Cos-1
From the text: (§2) Preparation of Smo fusion proteins and deletion mutants: Both Smo-Myc3 and SmoA1-Myc3 are C-terminally fused to three consecutive Myc epitopes. […] Smo-GFP is comprised of green fluorescent protein fused to the C-terminus of Smo, and the fluorescent proteins in SmoA1-YFP, and SmoA1-GFP are similarly fused to the C-terminus of SmoA1. All constructs were generated by PCR and verified by DNA sequencing.
as §1

SmoΔCT = biological target: T5, SmoΔCT (Mus musculus, UniProt P56726); assay: Fluorescence (BODIPY-cyclopamine) binding assay, Cos-1 cells expressing SmoΔCT; conditions: 150 nM KAAD-cyclopamine
T5 construct: expressed in transfected cells; host or cells: Cos-1
T5 sequence (P56726 33-555 limits assumed): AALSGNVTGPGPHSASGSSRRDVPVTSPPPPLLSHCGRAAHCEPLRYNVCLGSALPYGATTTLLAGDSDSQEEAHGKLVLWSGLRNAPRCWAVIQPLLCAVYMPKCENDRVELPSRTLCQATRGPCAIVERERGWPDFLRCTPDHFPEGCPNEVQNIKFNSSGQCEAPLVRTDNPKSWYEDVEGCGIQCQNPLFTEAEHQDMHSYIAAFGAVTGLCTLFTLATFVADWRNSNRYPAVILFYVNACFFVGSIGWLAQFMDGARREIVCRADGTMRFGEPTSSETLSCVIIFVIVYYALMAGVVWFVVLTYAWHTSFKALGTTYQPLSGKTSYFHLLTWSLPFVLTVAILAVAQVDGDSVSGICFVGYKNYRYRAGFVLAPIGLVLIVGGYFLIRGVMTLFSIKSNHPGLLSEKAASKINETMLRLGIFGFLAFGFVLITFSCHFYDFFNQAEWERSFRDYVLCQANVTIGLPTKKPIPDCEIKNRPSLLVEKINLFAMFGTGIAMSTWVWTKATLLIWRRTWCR
From the text: as §2, §1

SmoA1-Myc3 = biological target: T6, SmoA1-Myc3 (Mus musculus, UniProt P56726, W539L); assay: Endo H digestion of SmoA1-Myc3 (glycosylation state) in Cos-1 cells; format: cell-based; conditions: 5 μM KAAD-cyclopamine
T6 construct: expressed in transfected cells; host or cells: Cos-1
Protocol: Endo H digestion of Smo proteins: Cos-1 cells were cultured in DMEM containing 10% fetal bovine serum in 6-well plates and transfected with Smo-Myc3 or SmoA1-Myc3 expression vectors (1 μg/well). One day after transfection, 5 μM KAAD-cyclopamine (in MeOH, final concentration 0.1%) was added to a well of the SmoA1-Myc3-expressing cells. Two days after transfection, each well of cells washed twice with PBS and lysed with 300 μL of RIPA buffer (50 mM Tris-Cl, pH 7.5, 150 mM NaCl, 1% NP-40, 0.5% sodium deoxycholate, 1 mM EDTA, 1 (μg/ml leupeptin, 1 μg/ml aprotinin, 0.2 mM phenylmethylsulfonyl fluoride). Cell lysates were centrifuged at 20,000×g for 15 minutes at 4° C., and the supernatant was then centrifuged at 100,000×g for 30 minutes. The supernatant of the second centrifugation was then used for glycosidase treatments and/or SDS-PAGE. For glycosidase treatments, 45 μL of cell lysate was denatured in 0.5% SDS, 1% β-mercaptoethanol for 10 minutes at room temperature and then incubated in 50 mM sodium citrate (pH 5.5) and 50 units of endoglycosidase-H (New England Biolabs) at 37° C. overnight. The anti-Myc monoclonal antibody was used for western blotting, following SDS-PAGE separation and protein transfer to nitrocellulose.

Shh signaling [5] = conditions: read-out: IC50 in the Shh-LIGHT2 assay, Taipale et al. 2000; cited from earlier work

T1 sequence (P56726 33-793): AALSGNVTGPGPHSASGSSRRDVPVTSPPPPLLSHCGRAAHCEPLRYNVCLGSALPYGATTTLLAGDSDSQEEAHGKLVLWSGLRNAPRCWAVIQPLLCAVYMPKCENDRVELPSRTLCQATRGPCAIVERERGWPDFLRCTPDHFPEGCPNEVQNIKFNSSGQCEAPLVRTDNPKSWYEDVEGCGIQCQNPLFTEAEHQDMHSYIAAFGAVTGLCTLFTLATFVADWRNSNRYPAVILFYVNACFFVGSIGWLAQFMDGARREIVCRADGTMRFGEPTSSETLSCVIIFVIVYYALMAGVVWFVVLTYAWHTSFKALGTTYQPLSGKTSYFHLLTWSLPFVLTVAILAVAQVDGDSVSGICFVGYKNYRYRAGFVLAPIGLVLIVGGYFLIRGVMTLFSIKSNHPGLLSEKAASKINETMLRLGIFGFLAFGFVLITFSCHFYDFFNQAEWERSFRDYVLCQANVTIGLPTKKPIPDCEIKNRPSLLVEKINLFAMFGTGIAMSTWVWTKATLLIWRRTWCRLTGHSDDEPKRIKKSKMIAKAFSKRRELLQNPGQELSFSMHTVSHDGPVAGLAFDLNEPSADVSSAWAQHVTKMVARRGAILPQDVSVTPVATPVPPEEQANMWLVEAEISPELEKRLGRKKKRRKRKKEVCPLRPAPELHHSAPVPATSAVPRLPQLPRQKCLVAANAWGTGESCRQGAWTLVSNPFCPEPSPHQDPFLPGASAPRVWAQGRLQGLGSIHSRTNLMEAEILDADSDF
T3 sequence (P56726 33-793 W539L): as the sequence (P56726 33-793) above, with W507L counted along it
T4 sequence (P56726 with tags, fused parts or gaps DEL68-182): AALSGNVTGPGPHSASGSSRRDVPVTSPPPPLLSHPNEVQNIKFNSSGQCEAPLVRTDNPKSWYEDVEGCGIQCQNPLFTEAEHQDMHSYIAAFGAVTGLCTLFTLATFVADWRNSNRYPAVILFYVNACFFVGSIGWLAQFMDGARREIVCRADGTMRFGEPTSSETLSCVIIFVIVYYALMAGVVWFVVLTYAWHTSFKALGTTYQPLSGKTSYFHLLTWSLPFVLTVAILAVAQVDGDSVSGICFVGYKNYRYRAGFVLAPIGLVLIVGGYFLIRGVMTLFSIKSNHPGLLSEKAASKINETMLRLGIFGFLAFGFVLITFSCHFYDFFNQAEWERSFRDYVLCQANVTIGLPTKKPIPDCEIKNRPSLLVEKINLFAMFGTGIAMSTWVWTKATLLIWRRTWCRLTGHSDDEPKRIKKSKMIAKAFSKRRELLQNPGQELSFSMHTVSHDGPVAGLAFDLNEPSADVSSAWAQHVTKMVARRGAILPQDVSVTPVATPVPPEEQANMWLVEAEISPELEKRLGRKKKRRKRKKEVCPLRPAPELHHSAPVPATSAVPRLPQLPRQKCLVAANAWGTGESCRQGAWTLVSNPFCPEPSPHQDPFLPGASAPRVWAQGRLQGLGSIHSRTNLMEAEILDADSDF
T6 sequence (P56726 33-793 W539L): as the sequence (P56726 33-793) above, with W507L counted along it
T2 sequence (P56726 33-793 W539L): as the sequence (P56726 33-793) above, with W507L counted along it

Molecule: CC1=C2C[C@H]3[C@@H](CC=C4C[C@@H](O)CC[C@@]43C)[C@@H]2CC[C@]12O[C@@H]1C[C@H](C)CN[C@H]1[C@H]2C [cyclopamine, reference compound]
IC50 (Shh signaling [1]; Mus musculus, Shh Light2, read-out: IC50, inhibition of Shh signaling): 300 nM
observable toxicity in treated animals [2]: absence of observable toxicity

Molecule: PA-cyclopamine
IC50 (Shh signaling [1]; Shh-LIGHT2 mouse cultured cell assay, read-out: IC50, inhibition of Shh signaling): 150 nM
photoaffinity labeling of Smo-Myc3 (two forms) (Smo [3]; Cos-1 cells transiently transfected, upon photoactivation): readily labeled
photoaffinity labeling of endogenous mouse Smo (Smo [3]; live NTH-3T3 cells, light activation): did not detectably label
photoaffinity cross-linking of SmoA1 (SmoA1): unable to efficiently cross-link

ER-localization of SmoA1-GFP (SmoA1-GFP; 1 μM): reversed
Molecule: CNC1CCC(N(Cc2cccc(-c3ccncc3)c2)C(=O)c2sc3ccccc3c2Cl)CC1 (stereo not drawn) [SAG]

Molecule: CC1=C2C[C@H]3[C@@H](CC=C4CC(=O)CC[C@@]43C)[C@@H]2CC[C@]12O[C@@H]1C[C@H](C)CN(CCNC(=O)CCCCCNC(=O)CCc3ccccc3)[C@H]1[C@H]2C [KAAD-cyclopamine]
inhibition of BODIPY-cyclopamine binding to cells expressing wildtype Smo (Smo [4]; 150 nM KAAD-cyclopamine): inhibited
Kd (Smo [4]; competition of 5 nM BODIPY-cyclopamine binding, flow cytometry, Cos-1 cells, read-out: apparent dissociation constant (Kd), KAAD-cyclopamine/Smo complex): 23 nM
inhibition of BODIPY-cyclopamine binding to cells expressing SmoΔCRD (SmoΔCRD): inhibited
inhibition of BODIPY-cyclopamine binding to cells expressing SmoΔCT (SmoΔCT): inhibited
competition of PA-cyclopamine labeling of Smo-Myc3 (Smo [3]; 1.5 μM KAAD-cyclopamine, Cos-1 cells): inhibited
ER-localization of SmoA1-GFP (SmoA1-GFP; 10 μM): reversed
shift in SmoA1 glycosylation state (endo H) (SmoA1-Myc3): partial conversion of SmoA1 to an endo H-resistant form
IC50 (Shh signaling [5]): 20 nM
